Legend:
HCT116 cells [1] = assay: Endocytosis mechanisms for uptake of DiI/Lip-RFKH; assay type: cell-based, human; details: 3 h-incubation, endocytosis inhibitor added
HCT116 cells [2] = assay: Cell viability, sulforhodamine B assay, HCT116; assay type: cell-based, human; details: 48 h, SRB
Description: The cytotoxicity of formulations in rat small intestinal epithelial IEC-6 cells and human colorectal cancer HCT116 cells was determined using a sulforhodamine B (SRB) assay. After 48-h incubation with various formulations, the cells were stained with SRB for 10 min. The absorbance at 540 nm was detected with a microplate TECAN reader.

CT26 tumor = assay: In vivo antitumor efficacy, IVIS and PET/CT imaging, body weight in CT26-bearing mice; details: 28 days
Description: Male BALB/c mice at the age of 6 weeks with body weights of 20±2 g were purchased from National Laboratory Animal Center (Taipei, Taiwan) and maintained in an individual ventilation cage system. The animals were ensured free access to sterilized food and water. CT-26 (10^5 cells in 0.1 ml PBS) were injected subcutaneously into the right flank of mice to obtain tumor-bearing BALB/c mice. All processes performed on the animals were in accordance with the National Institutes of Health Guide for the Care and Use of Laboratory Animals and were approved by the National Yang-Ming University Animal Committee.
CT-26 cells (10^5 cells in 0.1 ml PBS) were injected subcutaneously into the right flank of mice to obtain tumor-bearing BALB/c mice. When tumor volume reached approximately 100 mm^3 (equation 4), the mice were randomly assigned to six groups (n=5 for each group). […] Mice were injected intravenously (IV) with Iri at 100 mg/kg and miR-200 at 1.25 mg/kg in different formulations every 7 days for 28 days. Fluorescence images were visualized one day after the final treatment using an IVIS […] (Caliper). […]
Tumor images were monitored using PET/CT. […]
Animal body weight and tumor size were detected every 3 or 4 days for 28 days. Tumor size was measured with a digital caliper and the tumor volume (V) was calculated (equation 4).

[3] = pH-sensitive release (dialysis against PBS); assay type: physicochemical; details: both pH 7.4 and pH 6.5, 37° C.
Description: Irinotecan- or miR-loaded formulations were placed in a dialysis bag (1,000-3,500 MWCO) and dialyzed separately against PBS at pH 7.4 and 6.5. At the indicated time, solution was withdrawn from the incubation medium. The irinotecan concentrations were determined by HPLC to calculate the cumulative drug release %.

[4] = Biochemical tests, H&E staining and TUNEL assay in CT26 tumor-bearing mice; assay type: in vivo; details: 48 h after last treatment
Description: Tumor-bearing mice were treated as described above. Blood samples (170 μl) were taken from the orbital sinus of mice 48 h after the final treatment. After harvesting and centrifugation for 15 min, liver, kidney and heart functions were assessed by detecting the serum levels of glutamate pyruvate transaminase (GPT), creatinine (CRE), and creatine kinase-MB (CK-MB) using corresponding activity assay kits (Fujifilm, Tokyo, Japan) and a clinical dry chemistry analyzer (Fuji Dri-Chem 7000V, Fujifilm Corp.). Additionally, the tumors and intestines were fixed in 4% paraformaldehyde overnight, embedded in paraffin, and cut into 5-μm-thick sections for H&E staining, and the histology of these samples was examined using an Olympus microscope.
TUNEL assay was performed to assess in vivo apoptosis in CT26 tumor-bearing mice at 48 h after last treatment of different formulations.^[42] In brief, the samples were frozen and fixed in 4% paraformaldehyde for 20 min. After washing with PBS for 10 min, the samples were immersed on ice for 2 min. After mixing with reaction dispersion (50 μL) according to the manufacture's manual (In Situ Cell Death Detection Kit, Roche, Germany), the section samples were stained with Hoechst in the nuclei for comparison and monitored using CLSM.

IEC-6 cells = assay: Cell viability, sulforhodamine B assay, IEC-6; assay type: cell-based, rat; details: noncancerous IEC-6 cells, 48 h, SRB
[5] = Biodistribution of irinotecan in SAS-luc-bearing nude mice; assay type: in vivo; details: UV spectrophotometer
Description: The biodistribution of irinotecan of different formulations in SAS-bearing mice was analyzed with UV spectrophotometer. (*statistical significance at P<0.05; **statistical significance at P<0.01; ***statistical significance at P<0.001).

[6] = Biodistribution of irinotecan in CT26/tk-luc-bearing mice; assay type: in vivo; details: UV spectrophotometer
Description: The biodistribution of irinotecan of different formulations in CT26-bearing mice was analyzed by UV spectrophotometer (*statistical significance at P<0.05; **statistical significance at P<0.01; ***statistical significance at P<0.001).

Row | Compound | relative fluorescence intensity % of DiI/Lip-RFKH (HCT116 cells [1]) | cytotoxicity / viability of HCT116 cells (HCT116 cells [2]; HCT116 cells) | cytotoxicity in HCT116 cells (HCT116 cells [2]; irinotecan at 4×10^−6 M) | body weight (CT26 tumor) | release within 24 h [3] [%] | serum CKMB level [4] | serum CRE level [4] | serum GPT level [4] | cytotoxicity to IEC-6 cells (IEC-6 cells) | biodistribution of irinotecan [5] | biodistribution of irinotecan [6] | hemolysis (rat blood cells)
1 | CN(C)CCCN1c2ccccc2Sc2ccc(Cl)cc21 [chlorpromazine] | significant decreases | – | – | – | – | – | – | – | – | – | – | –
2 | poly-L-lysine | significant decreases | – | – | – | – | – | – | – | – | – | – | –
3 | CCc1c2c(nc3ccc(OC(=O)N4CCC(N5CCCCC5)CC4)cc13)-c1cc3c(c(=O)n1C2)COC(=O)[C@]3(O)CC [irinotecan] | – | concentration-dependent inhibition | ≈ 20% | continuous decrease | 100 | provoked | provoked | provoked | ≈ 30% | majorly in the liver, kidney, and intestines | mainly in the liver, kidney, and intestines | ≈ 10%
